{"source": "paper PMC3744530", "about": "“CTA095, a Novel Etk and Src Dual Inhibitor, Induces Apoptosis in Prostate Cancer Cells and Overcomes Resistance to Src Inhibitors” (PLoS ONE, 2013)", "key": {"[1]": {"test_system": "Etk phosphorylation in PC3-Etk cells", "assay": "Western blot of Etk phosphorylation in intact cells", "assay_type": "cell-based, human", "details": "5 μM and 10 μM, 24 h", "protocol": "(§1) Western blotting was performed as described previously. Proteins were detected using the following antibodies: β-actin (Sigma-Aldrich, Saint Louis, MO), Etk (Santa Cruz Inc., Santa Cruz, CA), pEtk; Src, pSrc; Stat3, pStat3. For phospho-Etk, cells were pre-treated with 100 μM pervanadate for 15 min before harvest.\n(§2) Figure 4 Inhibition of cell signaling in PC3 cells following treatment with CTA095. Cells were grown in 10 mm plate to 50% confluence and treated with CTA095. Cells were harvested after 24 h. pEtk, Etk, pSrc, Src, pStat3, Stat3, pAkt and Akt levels were measured using the corresponding antibodies by Western blot. One of three similar experiments depicted."}, "[2]": {"test_system": "Akt phosphorylation in PC3 cells", "assay": "Western blot of Akt phosphorylation", "assay_type": "cell-based, human", "details": "24 h", "protocol": "as §1, §2"}, "[3]": {"test_system": "caspase3/7 in PC3 cells", "assay": "Caspase-3/7 activity (Apo-ONE Homogeneous assay)", "assay_type": "cell-based, human", "details": "PC3, 0–10 μM, 24 h", "protocol": "(§3) For caspase 3/7 activities, PC3 cells were seeded at 5,000 cells/well in 96-well plate overnight. Then the cells were treated with 0–10 μM CTA095 for 24 h. Caspase-3/7 activities were measured using the Apo-ONE Homogeneous Caspase-3/7 Assay kit (Promega, Madison, WI) according to the manufacturer's instruction. For caspase 9 activity, PC3 cells were seeded in 10 mm tissue culture plate and grew to 50% confluence. Cells were then treated with 0–10 μM CTA095 for 24 h. Cells were harvested and caspase 9 activity was measured using a Western blot with an anti-caspase 9 antibody.\n(§4) Figure 7 Induction of apoptosis of PC3 cells following treatment with CTA095. PC3 cells were seeded at 10^6 cells/ml (2 ml) in a 6-well plate overnight and then treated with CTA095 at the indicated concentrations for 24 h. Cell cycle arrest was analyzed using PI staining (A). Apoptosis was analyzed using Annexin-V FITC apoptosis detection kit (B). Caspase 9 activation was measured using western blot (D). For caspase 3/7 activity, PC3 cells were seeded at 5000 cells/well in 96 well plate overnight and treated with CTA095 at 0–10 μM for 24 h. Caspase-3/7 activities were measured using the Apo-ONE Homogeneous Caspase-3/7 Assay kit (Promega, Madison, WI) according to the manufacturer's instruction. Columns, mean; bars, standard deviation, n = 3. […]"}, "[4]": {"test_system": "caspase 9 in PC3 cells", "assay": "Caspase 9 activation (Western blot)", "assay_type": "cell-based, human", "details": "PC3, 0–10 μM, 24 h", "protocol": "as §3, §4"}, "[5]": {"test_system": "293 cells (Etk negative)", "assay": "Annexin V-FITC apoptosis in 293 cells", "assay_type": "cell-based", "details": "24 h", "protocol": "Supplementary file pone.0070910.s005.tif: Figure S5 Induction of apoptosis of 293 cells following treatment with CTA095. 293 cells were seeded at 10^6 cells/ml (2 ml) in a 6-well plate overnight and then treated with CTA095 at the indicated concentrations for 24 h. Apoptosis was analyzed using Annexin-V FITC apoptosis detection kit. Columns, mean; bars, standard deviation, n = 3. (TIF) Click here for additional data file."}, "[6]": {"test_system": "PC3 cells", "assay": "PC3 cell wound healing assay", "assay_type": "cell-based, human", "details": "5 μM, after 48 h", "protocol": "PC3 cells were grown in 6-well plate to 60% confluency. Then wounds were made using a tip and treated with CTA095 (0 and 5 μM). Cell migration (wound healing) was visualized under microscope at the indicated times.\nFigure 8 Inhibition of tube formation and cell migration by CTA095. Inhibition of vascular tube formation of HUVEC endothelial cells (A) and inhibition of migration (wound healing) of PC3 human prostate cancer cells (B) by CTA095. (A) HUVEC cells were seed on mitrogel and treated with CTA095 (0 and 5 μM) for 6 h. Vascular tube formation was visualized using microscope. (B) PC3 cells were grown in 6-well plate to 60% confluency. Then wounds were made and treated with CTA095 (0 and 5 μM). Cell migration (wound healing) was visualized under microscope at the indicated times."}, "[7]": {"test_system": "PC3-AZD20 cells", "assay": "MTT cell viability in Src inhibitor resistant cells", "assay_type": "cell-based, human", "details": "72 h", "protocol": "PC3 and PC3-AZD20 (PC3 cell resistant to 20 μM AZD0530, which is from AstraZeneca through MTA with Dr. Chris Evans) cells were seeded at 2000 cells/well in 96 well plates overnight. The cells were treated with AZD0530 or CTA095 at the indicated concentrations. Cell viability was measured using an MTT assay after 72 h.\nFigure 11 CTA095 overcomes Src inhibitor resistance in prostate cancer cells. PC3 and PC3-AZD20 (PC3 cell resistant to 20 μM AZD0530) cells were seeded at 2000 cells/well in 96 well plates overnight. The cells were treated with AZD0530 or CTA095 at the indicated concentrations. Cell viability was measured using MTT assay after 72 h. Symbols, mean; bars, standard deviation, n = 3."}, "[8]": {"test_system": "Myc mRNA in PC3-AZD20 cells", "assay": "Real-time PCR of Myc mRNA", "assay_type": "cell-based, human", "details": "PC3-AZD20, 10 μM, RT-PCR", "protocol": "PC3-AZD20 cells were seeded at 10^6 cells/well in 6 well plates overnight. The cells were treated with AZD0530 or CTA095 at 10 μM. Apoptosis was analyzed using Annexin-V FITC apoptosis detection kit. The mRNA levels of Myc and BCL2 were measured using real-time PCR. pEtk, Etk, pSrc, Src, pStat3, Stat3, Myc and BCL2 levels were measured using the corresponding antibodies through a Western blot.\nFigure 12 CTA095 induces apoptosis in Src inhibitor resistant prostate cancer cells through Myc and BCL2 inhibition. PC3-AZD20 (PC3 cell resistant to 20 μM AZD0530) cells were seeded at 10^6 cells/well in 6 well plates overnight. The cells were treated with AZD0530 or CTA095 at 10 μM. Apoptosis was analyzed using Annexin-V FITC apoptosis detection kit (A). The mRNA levels of Myc and BCL2 were measured using real-time PCR (B). pEtk, Etk, pSrc, Src, pStat3, Stat3, Myc and BCL2 levels were measured using the corresponding antibodies through Western blot (C). Columns, mean; bars, standard deviation, n = 3."}}, "data": [{"compound": "O=c1[nH]c2cc3nc(-c4ccc5oc6ccccc6c5c4)n(CCCN4CCCCC4)c3cc2nc1-c1ccccc1", "note": "[CTA095, 2-(dibenzo[b,d]furan-2-yl)-7-phenyl-1-(3-(piperidin-1-yl)propyl)-1H-imidazo[4,5-g]quinoxalin-6(5H)-one]", "values": [{"measurement": "Etk phosphorylation", "setting": "[1]", "result": "significantly inhibited"}, {"measurement": "Akt phosphorylation", "setting": "[2]", "result": "inhibited"}, {"measurement": "activation of caspase3/7", "setting": "[3]", "result": "dose dependent activation"}, {"measurement": "activation of caspase 9", "setting": "[4]", "result": "dose dependent activation"}, {"measurement": "induction of apoptosis", "setting": "[5]", "result": "resistant to induce apoptosis"}, {"measurement": "wound healing of PC3 cells", "setting": "[6]", "result": "greatly inhibited"}, {"measurement": "IC50 in PC3-AZD20 cells", "setting": "[7]", "result": "almost identical to that of the parental PC3 cells"}, {"measurement": "cell viability / sensitivity of PC3-AZD20 cells", "setting": "[7]", "result": "highly sensitive"}, {"measurement": "Myc mRNA level", "setting": "[8]", "result": "significantly down regulated"}]}]}
